The values below come from US9951271B2, “Process for making an asymmetric fluorophore” (UNITED STATES OF AMERICA, AS REPRESENTED BY THE SECRETARY …, priority 2015, dated 2018).

The subject of series [1] is NIH 3T3 cells. The experiment in a line: Live cell imaging (whole-cell staining). The class given is cell-based. The following applies: live NIH 3T3 cells; for staining pattern compared under same conditions and concentrations: 100 nM, FIG. 3. On the procedure:
(§1) NIH 3T3 cell line was obtained from ATCC (Manassas, Va.) and cultured routinely using sterile technique. Cell culture media consisted of DMEM supplemented with 10% FBS and 4 mM GlutaMax (Life Technologies). Both live and fixed cell automated microscopy was performed on a Zeiss AxioObserver Z1 (Carl Zeiss MicroImaging Inc., Jena, Germany) with an EC Plan-Neofluar 10×/0.30 Ph 1 objective (Carl Zeiss, Jena, Germany), and a Coolsnap HQ2 camera (Photometrics, Tucson, Ariz.). All fluorescent microscopy images were collected using a HE38 filter set (Carl Zeiss, Jena, Germany), a Colibri.2 LED light source at 100% intensity, and an exposure time of either 200 ms or 1 second. Performance benchmarking of the fluorescence microscope was performed daily. All imaging was done on the same day on the same microscope to decrease variations in image intensities. ImageJ (National Institutes of Health, Bethesda, Md.) was used to create figures and to determine the mean fluorescence intensity of cells.
One day prior to imaging, NIH 3T3 cells were seeded at 10,000 cells per well in a 24-well plate (Corning Costar, TC-treated). After 24 hours of incubation (37° C., 5% CO2), the media was removed from the plate and cells were washed once with DPBS (Ca and Mg free, Life Sciences). A total of 320 μL of DPBS with glucose was added to each well, and then 40 μL of Hoechst 33342 (final concentration of 0.5 μg/mL) and 40 μL of 4 (final concentrations from 10 μM to 1 nM were tested, final DMSO concentration=0.1%) or CFSE (final concentrations from 10 μM to 1 nM were tested, final DMSO concentration=0.1%). […] Using ImageJ (National Institutes of Health, Bethesda, Md.) individual cell fluorescence intensities were measured by first segmenting the 8-bit tiff image for the 6/CFSE/FNHS channel by manually finding the minimum intensity below which object boundaries began to expand into the background (the built-in watershed algorithm was also utilized to separate touching objects). Using a histogram of object sizes, the minimal object area was chosen and pixel intensity for each of those objects were recorded. […]

A short description of series [2]: Aqueous solubility of the fluorophore. The class given is physicochemical. The conditions noted are these: pH independent, diluted to 0.1% DMSO from 100 mM DMSO stock. On the procedure:
The resulting fluorophore (6) was soluble in aqueous solutions (pH independent) up to […] and was diluted down to 0.1% DMSO from a 100 mM, 100% DMSO stock solution. […] Compound (6) has a sharp fluorescence peak and high quantum yield.

Series [3] in a line: Photophysical characterization (UV-Vis, fluorescence emission, relative quantum yield). It counts as physicochemical. The method, then: The UV-Vis and fluorescence emission spectra were recorded on a Synergy HT (BioTek Instruments, Inc.) multi-detection microplate reader equipped with a 10 W Xe flash light source for absorbance and a 20 W tungsten quartz halogen source for fluorescence. Relative quantum yields were determined using rhodamine 6G in ddH2O as a reference while keeping instrument temperature and parameters constant. Serial dilutions of the asymmetric fluorophore (6) were made from a methanol stock; therefore, all dilutions of asymmetric fluorophore (6) were kept at 10% MeOH in water. All fluorescent spectra were intensity corrected using NIST SRM 2941 (excitation wavelength at 427 nm, scan emission monochromator from 450 nm to 650 nm using a 1 nm increment).

The subject of series [4] is NIH 3T3 cells. Kind of series: Fixed cell imaging (whole-cell staining). The class given is cell-based. The conditions noted are these: fixed NIH 3T3 cells, 1 μM. The method, then:
as §1, with “All imaging was done on the same day on the same microscope to decrease variations in image intensities.” left out
One day prior to imaging, NIH 3T3 cells were seeded at 20,000 cells per well in a 24-well plate (Corning Costar, TC-treated). […] Using ImageJ (National Institutes of Health, Bethesda, Md.) individual cell fluorescence intensities were measured by first segmenting the 8-bit tiff image for the 4/CFSE/FNHS channel by manually finding the minimum intensity below which object boundaries began to expand into the background (the built-in watershed algorithm was also utilized to separate touching objects). […]

In series [5] the test system is NIH 3T3 cells. Kind of series: Basal cytotoxicity MTS assay (cell viability). The class given is cell-based. The conditions noted are these: concentrations below 10 μM, 72-hour incubation, FIG. 6. On the procedure:
On day one, 5,000 cells per well were plated on a clear 96-well plate (Corning Costar, TC-treated) along with several blank wells with media only. The next day, the media was replaced with 180 μL of DPBS with glucose and 20 μL of 4 (final concentrations from 30 μM to 1 nM were tested, final DMSO concentration=0.1%) and incubated for 30 minutes. The dye solution was removed from the wells and 200 μL of fresh media was added to each well in the plate. The plate was then incubated (37° C., 5% CO2) for 72 hours. Then 40 μL of MTS (Promega, CellTiter 96® AQueous One Solution Cell Proliferation Assay) was added to each well and the plate was incubated (37° C., 5% CO2) for 4 hours. The absorbance of each well at 540 nm was measured on a Synergy HT plate reader (BioTek Instruments, Inc.). All assays were performed in triplicate on three separate plates.
On the technique in general: Formazan colour is commonly taken as a measure of viable cells.

Take “carboxyfluorescein succinimidyl ester [CFSE, reference compound]”: the “staining pattern compared under same conditions and concentrations” value with NIH 3T3 cells [1] is “more diffuse staining pattern”.

As to `CC1=C(CCC(=O)ON2C(=O)CCC2=O)C(C)=[N+]2C1=Cc1cccn1[B-]2(F)F` [Compound 6, 4,4-difluoro-1,3-dimethyl-4-bora-3a,4a-diaza-s-indacene-2-propionic acid N-hydroxysuccinimide ester], the “soluble in aqueous solutions” value in series [2] was “up to 1 μM”. Further, in series [3] (10% aqueous methanol, FIG. 1), the emission is reported as 516 nm and the maximum excitation came to 502 nm. Moreover, the relative quantum yield in series [3] (10% aqueous methanol, reference rhodamine 6G in ddH2O) came to 0.84. For the same compound, the maximum absorption in series [3] (water (10% MeOH), FIG. 1 legend) is reported as 502 nm. In addition, in series [3] (water (10% MeOH), excited at 500 nm, FIG. 1 legend), the “maximum excitation (excited at 500 nm)” value is given as 516 nm. For the same compound, in the series with NIH 3T3 cells [1], the “staining pattern compared under same conditions and concentrations” value is given as “less diffuse staining”. The “staining of live cells (membrane crossing, localisation)” value in the series with NIH 3T3 cells [1] (30 minutes of staining, 1 μM, FIG. 2) is “crossed the cell membrane and stained the cytoplasmic regions with some nuclear staining”. Further, in the series with NIH 3T3 cells [4] (FIG. 4), the “fluorescence intensity relative to FNHS (quantitative image analysis)” value is “three fold brighter than FNHS”. For the same compound, the “brightness by visual appearance versus FNHS” value in the series with NIH 3T3 cells [4] (same conditions, FIG. 5) was “appeared brighter than FNHS”. Moreover, in the series on NIH 3T3 cells [5], the “change in cell viability” value was “no significant change in cell viability”.
